Assay results from patent US7763641B2, “Broadspectrum heterocyclic substituted phenyl containing sulfonamide HIV protease inhibitors” (Tibotec Pharmaceuticals Ltd., priority 2001, dated 2010).
Where two headings read alike, the source gives them in different places.

What was measured:
[1] = system: HIV strain E; test: Cellular anti-HIV assay, clinically isolated mutant strain E; format: cell-based; conditions: FR=EC50 (mutant strain)/EC50 (HIV-1 strain LAI)
Procedure: (§1) HIV- or mock-infected MT4 cells were incubated for five days in the presence of various concentrations of the inhibitor. […] Cell viability is measured by measuring the concentration of MTT, a yellow, water soluble tetrazolium dye that is converted to a purple, water insoluble formazan in the mitochondria of living cells only. Upon solubilization of the resulting formazan crystals with isopropanol, the absorbance of the solution is monitored at 540 nm. The values correlate directly to the number of living cells remaining in the culture at the completion of the five day incubation. The inhibitory activity of the compound was monitored on the virus-infected cells and was expressed as EC50 and EC90. These values represent the amount of the compound required to protect 50% and 90%, respectively, of the cells from the cytopathogenic effect of the virus. […] The selectivity index (SI) (ratio CC50/EC50) is an indication of the selectivity of the anti-HIV activity of the inhibitor. Wherever results are reported as e.g. pEC50 or pCC50 values, the result is expressed as the negative logarithm of the result expressed as EC50 or CC50 respectively.
(§2) Because of the increasing emergence of drug resistant HIV strains, the present compounds were tested for their potency against clinically isolated HIV strains harboring several mutations (Table 7 and 8).
(§3) As a measure of the broad spectrum activity of the present compounds, the fold resistance (FR), defined as FR=EC50 (mutant strain)/EC50 (HIV-1 strain LAI), was determined.

[2] = system: HIV strain C; test: Cellular anti-HIV assay, clinically isolated mutant strain C; format: cell-based; conditions: FR=EC50 (mutant strain)/EC50 (HIV-1 strain LAI)
Procedure: as §1, §2, §3

[3] = system: mock-infected MT4 cells; test: Toxicity on mock-infected cells (MTT)
Procedure: as §1, §3

[4] = system: HIV-1 strain LAI; test: Cellular anti-HIV assay (MTT), wild type strain; format: cell-based; conditions: for pEC50: MT4 cells, five days, MTT, HIV-1 strain LAI, Tables 1-6; for WT (pEC50 against wild type HIV-LAI strain): Table 8
Procedure: The compounds of the present invention were examined for anti-viral activity in a cellular assay. […] The cellular assay was performed according to the following procedure.

[5] = system: HIV strain B; test: Cellular anti-HIV assay, clinically isolated mutant strain B; format: cell-based; conditions: FR=EC50 (mutant strain)/EC50 (HIV-1 strain LAI)
Procedure: as §1, §2, §3

[6] = system: HIV strain A; test: Cellular anti-HIV assay, clinically isolated mutant strain A; format: cell-based; conditions: FR=EC50 (mutant strain)/EC50 (HIV-1 strain LAI)
Procedure: as §1, §2, §3

[7] = system: HIV strain D; test: Cellular anti-HIV assay, clinically isolated mutant strain D; format: cell-based; conditions: FR=EC50 (mutant strain)/EC50 (HIV-1 strain LAI)
Procedure: as §1, §2, §3

[8] = pCC50 with mock transfected cells

## CC(C)CN(CC(O)C(Cc1ccccc1)NC(=O)OC1COC2OCCC12)S(=O)(=O)c1ccc(-c2csc(Nc3ccncc3)n2)cc1 (stereo not drawn) [Compound 5]
[1]
  E (FR towards mutant E): 13.5
[2]
  C (FR towards mutant C): 3.0
[3]; [8]
  Tox (pCC50): 4.95
[4]
  pEC50: 7.6
  WT (pEC50 against wild type HIV-LAI strain): 7.6
[5]
  B (FR towards mutant B): 6.3
[6]
  A (FR value towards mutant A): 22.3

## Cc1sc(N)nc1-c1ccc(S(=O)(=O)N(CC(C)C)CC(O)C(Cc2ccccc2)NC(=O)OC2COC3OCCC23)cc1 (stereo not drawn) [Compound 7]
[4]
  pEC50: 7.3

## Cc1cccc(C)c1OCC(=O)N[C@@H](Cc1ccccc1)[C@H](O)CN(CC(C)C)S(=O)(=O)c1ccc(-c2csc(N)n2)cc1 [Compound 8]
[4]
  pEC50: 5.9

## CNc1nc(-c2ccc(S(=O)(=O)N(CC(C)C)C[C@@H](O)[C@H](Cc3ccccc3)NC(=O)COc3c(C)cccc3C)cc2)cs1 [Compound 9]
[4]
  pEC50: 5.9

## CC(C)CN(C[C@@H](O)[C@H](Cc1ccccc1)NC(=O)OCc1cncs1)S(=O)(=O)c1ccc(-c2csc(Nc3ccncc3)n2)cc1 [Compound 10]
[4]
  pEC50: 5.5

## Cc1cccc(C)c1OCC(=O)N[C@@H](Cc1ccccc1)[C@H](O)CN(CC(C)C)S(=O)(=O)c1ccc(-c2csc(Nc3ccncc3)n2)cc1 [Compound 11]
[4]
  pEC50: 5.4

## CC(=O)Nc1nc(-c2ccc(S(=O)(=O)N(CC(C)C)C[C@@H](O)[C@H](Cc3ccccc3)NC(=O)COc3c(C)cccc3C)cc2)cs1 [Compound 12]
[4]
  pEC50: 5.3

## Cc1cc(Br)cc(C)c1OCC(=O)N[C@@H](Cc1ccccc1)[C@H](O)CN(CC(C)C)S(=O)(=O)c1ccc(-c2csc(N)n2)cc1 [Compound 13]
[4]
  pEC50: 5.3

## CCNc1nc(-c2ccc(S(=O)(=O)N(CC(C)C)C[C@@H](O)[C@H](Cc3ccccc3)NC(=O)COc3c(C)cccc3C)cc2)cs1 [Compound 15]
[4]
  pEC50: 5.3

## C=CCNc1nc(-c2ccc(S(=O)(=O)N(CC(C)C)C[C@@H](O)[C@H](Cc3ccccc3)NC(=O)COc3c(C)cccc3C)cc2)cs1 [Compound 16]
[4]
  pEC50: 5.1

## CC(=O)Nc1nc(-c2ccc(S(=O)(=O)N(CC(C)C)C[C@@H](O)[C@H](Cc3ccccc3)NC(=O)COc3c(C)cc(Br)cc3C)cc2)cs1 [Compound 17]
[4]
  pEC50: 4.2

## C=CCNc1nc(-c2ccc(S(=O)(=O)N(CC(C)C)C[C@@H](O)[C@H](Cc3ccccc3)NC(=O)COc3c(C)cc(Br)cc3C)cc2)cs1 [Compound 18]
[4]
  pEC50: 4.4

## CCNc1nc(-c2ccc(S(=O)(=O)N(CC(C)C)C[C@@H](O)[C@H](Cc3ccccc3)NC(=O)COc3c(C)cc(Br)cc3C)cc2)cs1 [Compound 19]
[4]
  pEC50: 4.6

## Cc1cc(Br)cc(C)c1OCC(=O)N[C@@H](Cc1ccccc1)[C@H](O)CN(CC(C)C)S(=O)(=O)c1ccc(-c2csc(Nc3ccncc3)n2)cc1 [Compound 21]
[4]
  pEC50: 4.7

## Cc1cccc(C)c1OCC(=O)N[C@@H](Cc1ccccc1)[C@H](O)CN(CC(C)C)S(=O)(=O)c1ccc(-c2cc[nH]n2)cc1 [Compound 24, [(1S,2R)-2-hydroxy-3-[N-(2-methylpropyl)-N-(4-pyrazol-3(5)-ylphenylsulfonyl)-amino]-1-(phenylmethyl)propyl]-(2,6-dimethylphenoxy) acetamide]
[1]
  E (FR towards mutant E): 3.1
[3]; [8]
  Tox (pCC50): 4.2
[4]
  pEC50: 7.1
  WT (pEC50 against wild type HIV-LAI strain): 7.1
[6]
  A (FR value towards mutant A): 1.1

## Cc1cccc(C)c1OCC(=O)N[C@@H](Cc1ccccc1)[C@H](O)CN(CC(C)C)S(=O)(=O)c1ccc(-c2ccnn2C)cc1 [Compound 25]
[4]
  pEC50: 5.9

## Cc1cccc(C)c1OCC(=O)N[C@@H](Cc1ccccc1)[C@H](O)CN(CC(C)C)S(=O)(=O)c1ccc(-c2ccnn2C(C)(C)C)cc1 [Compound 27]
[4]
  pEC50: 5.2

## Cc1cccc(C)c1OCC(=O)N[C@@H](Cc1ccccc1)[C@H](O)CN(CC(C)C)S(=O)(=O)c1ccc(-c2ccnn2Cc2ccccc2)cc1 [Compound 28]
[4]
  pEC50: 5.2

## CCn1nccc1-c1ccc(S(=O)(=O)N(CC(C)C)C[C@@H](O)[C@H](Cc2ccccc2)NC(=O)COc2c(C)cccc2C)cc1 [Compound 29]
[4]
  pEC50: 5.2

## CCCn1nccc1-c1ccc(S(=O)(=O)N(CC(C)C)C[C@@H](O)[C@H](Cc2ccccc2)NC(=O)COc2c(C)cccc2C)cc1 [Compound 30]
[4]
  pEC50: 5.0

## Cc1nc(-c2ccc(S(=O)(=O)N(CC(C)C)CC(O)C(Cc3ccccc3)NC(=O)OC3COC4OCCC34)cc2)c[nH]1 (stereo not drawn) [Compound 31]
[4]
  pEC50: 7.6

## CC(C)CN(CC(O)C(Cc1ccccc1)NC(=O)OC1COC2OCCC12)S(=O)(=O)c1ccc(-c2c[nH]c(N)n2)cc1 (stereo not drawn) [Compound 34]
[4]
  pEC50: 6.2

## Cc1nc(-c2ccc(S(=O)(=O)N(CC(C)C)C[C@@H](O)[C@H](Cc3ccccc3)NC(=O)OCc3cncs3)cc2)co1 [Compound 36, [(1S,2R)-2-hydroxy-3-[N-[4-(2-methyloxazol-4-yl)phenylsulfonyl]-N-(2-methylpropyl)amino]-1-(phenylmethyl)propyl]carbamic acid, (thiazol-5-ylmethyl)ester]
[4]
  pEC50: 6.3

## CC(C)CN(CC(O)C(Cc1ccccc1)NC(=O)OC1COC2OCCC12)S(=O)(=O)c1ccc(-c2coc(N)n2)cc1 (stereo not drawn) [Compound 37]
[4]
  pEC50: 8.4

## CC(C)CN(CC(O)C(Cc1ccccc1)NC(=O)OC1COC2OCCC12)S(=O)(=O)c1ccc(-c2coc(COCc3ccccc3)n2)cc1 (stereo not drawn) [Compound 39]
[1]
  E (FR towards mutant E): 52
[3]
  Tox (pCC50): <4.0
[4]
  pEC50: 8.1
  WT (pEC50 against wild type HIV-LAI strain): 8.1
[6]
  A (FR value towards mutant A): 36

## CC(C)CN(CC(O)C(Cc1ccccc1)NC(=O)OC1COC2OCCC12)S(=O)(=O)c1ccc(-c2coc(CCC(=O)O)n2)cc1 (stereo not drawn) [Compound 41]
[4]
  pEC50: 7.2

## CC(C)CN(CC(O)C(Cc1ccccc1)NC(=O)OC1COC2OCCC12)S(=O)(=O)c1ccc(-c2coc(-c3ccc([N+](=O)[O-])cc3)n2)cc1 (stereo not drawn) [Compound 43]
[1]
  E (FR towards mutant E): 6.6
[2]
  C (FR towards mutant C): 9.1
[3]; [8]
  Tox (pCC50): <4.0
[4]
  pEC50: 7.9
  WT (pEC50 against wild type HIV-LAI strain): 7.9
[5]
  B (FR towards mutant B): 23
[7]
  D (FR towards mutant D): 10.2
[6]
  A (FR value towards mutant A): 54

## CC(C)CN(CC(O)C(Cc1ccccc1)NC(=O)OC1COC2OCCC12)S(=O)(=O)c1ccc(-c2coc(-c3ccc4c(c3)OCO4)n2)cc1 (stereo not drawn) [Compound 45]
[4]
  pEC50: 7.8

## CC(C)CN(CC(O)C(Cc1ccccc1)NC(=O)OC1COC2OCCC12)S(=O)(=O)c1ccc(-c2coc(-c3ccc(I)cc3)n2)cc1 (stereo not drawn) [Compound 47]
[4]
  pEC50: 7.1

## CC(C)Cc1nc(-c2ccc(S(=O)(=O)N(CC(C)C)CC(O)C(Cc3ccccc3)NC(=O)OC3COC4OCCC34)cc2)co1 (stereo not drawn) [Compound 49]
[1]
  E (FR towards mutant E): 10
[2]
  C (FR towards mutant C): 4.4
[3]
  Tox (pCC50): <4.49
[4]
  pEC50: 8.1
  WT (pEC50 against wild type HIV-LAI strain): 8.1
[5]
  B (FR towards mutant B): 21

## CC(C)CN(CC(O)C(Cc1ccccc1)NC(=O)OC1COC2OCCC12)S(=O)(=O)c1ccc(-c2coc(-c3cccs3)n2)cc1 (stereo not drawn) [Compound 50]
[2]
  C (FR towards mutant C): 4.3
[3]
  Tox (pCC50): <4.49
[4]
  pEC50: 8.0
  WT (pEC50 against wild type HIV-LAI strain): 8.0
[5]
  B (FR towards mutant B): 14
[7]
  D (FR towards mutant D): 13

## CC(C)CN(CC(O)C(Cc1ccccc1)NC(=O)OC1COC2OCCC12)S(=O)(=O)c1ccc(-c2coc(-c3ccc(Br)cc3)n2)cc1 (stereo not drawn) [Compound 51]
[1]
  E (FR towards mutant E): 4.8
[2]
  C (FR towards mutant C): 4.8
[3]; [8]
  Tox (pCC50): <4.49
[4]
  pEC50: 7.5
  WT (pEC50 against wild type HIV-LAI strain): 7.5
[7]
  D (FR towards mutant D): 12

## CC(C)CN(CC(O)C(Cc1ccccc1)NC(=O)OC1COC2OCCC12)S(=O)(=O)c1ccc(-c2coc(-c3ccc(C#N)cc3)n2)cc1 (stereo not drawn) [Compound 52]
[1]
  E (FR towards mutant E): 11
[2]
  C (FR towards mutant C): 6.2
[3]
  Tox (pCC50): <4.49
[4]
  pEC50: 8.1
  WT (pEC50 against wild type HIV-LAI strain): 8.1
[5]
  B (FR towards mutant B): 17
[7]
  D (FR towards mutant D): 16

## CC(C)CN(CC(O)C(Cc1ccccc1)NC(=O)OC1COC2OCCC12)S(=O)(=O)c1ccc(-c2cn3ccsc3n2)cc1 (stereo not drawn) [Compound 53]
[4]
  pEC50: 7.6

## CC(C)CN(C[C@@H](O)[C@H](Cc1ccccc1)NC(=O)O[C@H]1CO[C@H]2OCC[C@H]21)S(=O)(=O)c1ccc(-c2cnccn2)cc1 [Compound 56, [(1S,2R)-2-hydroxy-3-[N-(2-methylpropyl)-N-[4-(pyrazin-2-yl)-phenylsulfonyl]amino]-1-(phenylmethyl)propyl]carbamic acid, [(3R,3aS,6aR)-hexahydrofuro[2,3-b]furan-3-yl]ester]
[4]
  pEC50: 8.1

## CC(C)CN(CC(O)C(Cc1ccccc1)NC(=O)OC1COC2OCCC12)S(=O)(=O)c1ccc(-c2nc(N)nc(N)n2)cc1 (stereo not drawn) [Compound 58]
[4]
  pEC50: 6.0
